Measurements reported in patent US20240041042A1, “1-(PYRIDYL)-5-AZINYLPYRAZOLE DERIVATIVES, AND THEIR USE FOR CONTROL OF UNDESIRED PLANT GROWTH” (Bayer Aktiengesellschaft, priority 2020, published 2024).

Experiments:
Format in all cases: in vivo
[1] = test system: Alopecurus myosuroides (ALOMY); assay: Pre-emergence herbicidal action against ALOMY; details: scored visually after about 3 weeks, 100% = plants have died
In short: (§1)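 Dosages of 320 g/ha or less; pre-emergence; WP or EC in aqueous spray, 0.5% additive, 600 l/ha; greenhouse; visual % effect after ~3 wk relative to control pots.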

[2] = test system: Amaranthus retroflexus (AMARE); assay: Pre-emergence herbicidal action against AMARE; details: visual scoring after about 3 weeks vs untreated controls
In short: as §1

Avena fatua (AVEFA) [3] = assay: Pre-emergence herbicidal action against AVEFA; details: visual scoring after about 3 weeks vs untreated controls
In short: as §1

[4] = test system: Echinochloa crus-galli (ECHCG); assay: Pre-emergence herbicidal action against ECHCG; details: dosage 320 g/ha
In short: as §1

Lolium rigidum (LOLRI) [5] = assay: Pre-emergence herbicidal action against LOLRI
In short: as §1

[6] = test system: Matricaria inodora (MATIN); assay: Pre-emergence herbicidal action against MATIN; details: dosage 320 g/ha
In short: as §1

[7] = test system: Pharbitis purpurea (PHBPU); assay: Pre-emergence herbicidal action against PHBPU; details: dosage 320 g/ha
In short: as §1

[8] = test system: Polygonum convolvulus (POLCO); assay: Pre-emergence herbicidal action against POLCO
In short: as §1

Setaria viridis (SETVI) [9] = assay: Pre-emergence herbicidal action against SETVI
In short: as §1

[10] = test system: Verconica persica (VERPE); assay: Pre-emergence herbicidal action against VERPE
In short: as §1

Viola tricolor (VIOTR) [11] = assay: Pre-emergence herbicidal action against VIOTR; details: 320 g/ha, Viola tricolor
In short: as §1

[12] = test system: Alopecurus myosuroides (ALOMY); assay: Post-emergence herbicidal action against ALOMY; details: visual rating about 3 weeks after treatment vs untreated controls (100% = plants have died, 0% = like control plants)
In short: (§2)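 Doses of 320 g/ha or lower, suffixes a, b and c marking different dosages, were applied post-emergence at the one-leaf stage in 600 l/ha water with 0.5% additive. Damage was assessed visually after about 3 weeks in the greenhouse.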

[13] = test system: Amaranthus retroflexus (AMARE); assay: Post-emergence herbicidal action against AMARE
In short: as §2

Avena fatua (AVEFA) [14] = assay: Post-emergence herbicidal action against AVEFA; details: 320 g/ha, visual rating about 3 weeks after treatment
In short: as §2

[15] = test system: Echinochloa crus-galli (ECHCG); assay: Post-emergence herbicidal action against ECHCG
In short: as §2

Lolium rigidum (LOLRI) [16] = assay: Post-emergence herbicidal action against LOLRI; details: dosage 320 g/ha
In short: as §2

[17] = test system: Matricaria inodora (MATIN); assay: Post-emergence herbicidal action against MATIN
Description: Seeds of monocotyledonous and dicotyledonous weeds and crop plants are placed in sandy loam in plastic or organic planting pots, covered with soil and cultivated in a greenhouse under controlled growth conditions. 2 to 3 weeks after sowing, the test plants are treated at the one-leaf stage. The compounds of the invention, formulated in the form of wettable powders (WP) or as emulsion concentrates (EC), are then sprayed onto the green parts of the plants as aqueous suspension or emulsion with addition of 0.5% additive at a water application rate of 600 l/ha (converted). After the test plants have been kept in the greenhouse under optimum growth conditions for about 3 weeks, the activity of the preparations is rated visually in comparison to untreated controls. For example, 100% activity=the plants have died, 0% activity=like control plants.
Tables B1 to B13 below show the effects of selected compounds of the general formula (I) according to Table 1 on various harmful plants and at an application rate corresponding to 320 g/ha or lower, which were obtained by the experimental procedure mentioned above. The appendices “a”, “b” and “c” give differentiation by dosage used with otherwise the same harmful plants tested.

[18] = test system: Pharbitis purpurea (PHBPU); assay: Post-emergence herbicidal action against PHBPU
In short: as §2

Setaria viridis (SETVI) [19] = assay: Post-emergence herbicidal action against SETVI
In short: as §2

[20] = test system: Verconica persica (VERPE); assay: Post-emergence herbicidal action against VERPE
In short: as §2

Viola tricolor (VIOTR) [21] = assay: Post-emergence herbicidal action against VIOTR; details: 320 g/ha
In short: as §2

Oryza sativa (ORYSA) = details: crop plant compatibility, 80 g/ha, effect in comparison to untreated controls
In short: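 Percent effect on the crop was judged by eye against untreated controls, where 0% means like control and 100% means dead plants. Plants had been sprayed post-emergence at the one-leaf stage and then kept under optimum greenhouse conditions for about 3 weeks.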

[22] = 80 g/ha, visual rating about 3 weeks after treatment vs untreated controls (100% = plants have died, 0% = like control plants)
[23] = 320 g/ha, visual rating about 3 weeks after treatment

Structure (SMILES)	Pre-emergence action against ALOMY ([1]; 80 g/ha)	Pre-emergence action against ALOMY ([1]; 320 g/ha)	Pre-emergence action against AMARE in % ([2]; 80 g/ha)	Pre-emergence action against AMARE in % ([2]; 320 g/ha)	Pre-emergence action against AVEFA in % (Avena fatua (AVEFA) [3]; 320 g/ha)	Pre-emergence action against ECHCG in % [4]	Pre-emergence action against LOLRI in % (Lolium rigidum (LOLRI) [5]; dosage 320 g/ha)	Pre-emergence action against MATIN in % [6]	Pre-emergence action against PHBPU in % [7]	Pre-emergence action against POLCO in % ([8]; dosage 80 g/ha)	Pre-emergence action against POLCO in % ([8]; dosage 320 g/ha)	Pre-emergence action against SETVI in % (Setaria viridis (SETVI) [9]; dosage 80 g/ha)	Pre-emergence action against SETVI in % (Setaria viridis (SETVI) [9]; dosage 320 g/ha)	Pre-emergence action against VERPE in % ([10]; dosage 80 g/ha)	Pre-emergence action against VERPE in % ([10]; dosage 320 g/ha)	Pre-emergence action against VIOTR in % (Viola tricolor (VIOTR) [11])	Post-emergence action against ALOMY in % ([12]; 80 g/ha)	Post-emergence action against ALOMY in % ([12]; 320 g/ha)	Post-emergence action against AMARE in % [13, 22]	Post-emergence action against AMARE in % [13, 23]	other results
C=C(COC(=O)COc1nn(-c2ccccn2)c(-c2ccc(F)nc2)c1Br)C(=O)OC [Example I-370]	80%	100%	100%	100%	90%	100%	100%	100%	90%	80%	100%	100%	100%	90%	100%	100%	100%	100%	80%	80%	Pre-emergence action against AVEFA in % (Avena fatua (AVEFA) [3]; 80 g/ha): 90%; Pre-emergence action against LOLRI in % (Lolium rigidum (LOLRI) [5]; dosage 80 g/ha): 90%; Post-emergence action against AVEFA in % (Avena fatua (AVEFA) [14]): 90%; Post-emergence action against ECHCG in % ([15]; dosage 80 g/ha): 80%; Post-emergence action against ECHCG in % ([15]; dosage 320 g/ha): 80%; Post-emergence action against LOLRI in % (Lolium rigidum (LOLRI) [16]): 90%; Post-emergence action against MATIN in % ([17]; dosage 80 g/ha): 80%; Post-emergence action against MATIN in % ([17]; dosage 320 g/ha): 80%; Post-emergence action against PHBPU in % ([18]; dosage 80 g/ha): 80%; Post-emergence action against PHBPU in % ([18]; dosage 320 g/ha): 90%; Post-emergence action against SETVI in % (Setaria viridis (SETVI) [19]; dosage 80 g/ha): 80%; Post-emergence action against SETVI in % (Setaria viridis (SETVI) [19]; dosage 320 g/ha): 80%; Post-emergence action against VERPE in % ([20]; 320 g/ha, VERPE): 90%; Post-emergence action against VERPE in % ([20]; dosage 80 g/ha): 90%; Post-emergence action against VIOTR in % (Viola tricolor (VIOTR) [21]): 80%; Post-emergence action against ORYSA in % (Oryza sativa (ORYSA)): 0%
CS(=O)(=O)CCOC(=O)COc1nn(-c2ccccn2)c(-c2ccc(F)nc2)c1Br [Example I-313]	90%	100%	90%	100%	90%	100%	100%	90%	80%	80%	80%	100%	100%	80%	90%	90%	90%	90%	80%	90%	Post-emergence action against AVEFA in % (Avena fatua (AVEFA) [14]): 80%; Post-emergence action against ECHCG in % ([15]; dosage 320 g/ha): 90%; Post-emergence action against LOLRI in % (Lolium rigidum (LOLRI) [16]): 90%; Post-emergence action against MATIN in % ([17]; dosage 80 g/ha): 80%; Post-emergence action against MATIN in % ([17]; dosage 320 g/ha): 90%; Post-emergence action against PHBPU in % ([18]; dosage 80 g/ha): 90%; Post-emergence action against PHBPU in % ([18]; dosage 320 g/ha): 90%; Post-emergence action against SETVI in % (Setaria viridis (SETVI) [19]; dosage 80 g/ha): 90%; Post-emergence action against SETVI in % (Setaria viridis (SETVI) [19]; dosage 320 g/ha): 90%; Post-emergence action against VERPE in % ([20]; 320 g/ha, VERPE): 90%; Post-emergence action against VERPE in % ([20]; dosage 80 g/ha): 90%; Post-emergence action against VIOTR in % (Viola tricolor (VIOTR) [21]): 80%; Post-emergence action against ORYSA in % (Oryza sativa (ORYSA)): 10%
